Data published in patent US12285440B2, “APOE4 impairs myelination via altered cholesterol biosynthesis and transport in oligodendroglia” (Massachusetts Institute of Technology, priority 2021, dated 2025).

Key:
Type in all cases: cell-based, human
[1] = system: APOE3 iMGLs; assay: Lipid droplet induction in APOE3 iMGLs, BODIPY/IBA1 staining; conditions: 20 μM, 16 hours
[2] = system: APOE3 iMGLs; assay: qPCR of OA-treated iMGLs; conditions: 20 μM, 16 hours
[3] = system: APOE3 iMGLs; assay: Calcium imaging upon ATP uncaging in OA-treated APOE3 iMGLs; conditions: 20 μM, 16 hours, vs untreated APOE3 iMGLs
[4] = system: APOE4 iMGLs; conditions: 1 μM, 16 hours, vs DMSO-treated control cells
[5] = system: APOE4 iMGLs; assay: Purinergic signaling in TrC-treated APOE4 iMGLs; conditions: 1 μM, 16 hours
[6] = system: APOE4 iMGLs; assay: Cholesterol in media of APOE4 iMGLs via ELISA; conditions: 16 hours treatment, drug washed off, media conditioned 24 hours; vs DMSO-treated controls
Procedure: Having induced lipid formation in APOE3 iMGLs, we next attempted to deplete APOE4 iMGLs of lipid droplets to test whether this would alleviate APOE4 phenotypes. We turned to the ACSL1 inhibitor Triacsin C (TrC). […] Since TrC has also been reported to inhibit cholesterol biosynthesis and increase microglial phagocytosis, we decided to test if the extracellular accumulation of cholesterol in APOE4 iMGLs could be reduced by TrC treatment. After 16 hours, DMSO-treated controls or TrC-treated APOE4 iMGLs were washed off the drug treatment and allowed to condition the media for an additional 24 hours. […] We reasoned that a decrease in extracellular cholesterol accumulation in APOE4 iMGLs cultures treated with TrC was likely to also relieve the suppression of neuronal activity under APOE4 iMGL conditioned media. NGN2-induced neurons from APOE3 or APOE4 iPS lines were seeded onto MEAs and allowed to mature for 3 weeks before being recorded 24 hours after exposure to conditioned media from APOE3 iMGLs, APOE4 iMGLs, or APOE4 iMGL treated with TrC. […]
[…] Measurements were made using an EnSpire plate reader (Perkin Elmer). APOE levels were similarly processed and quantified from iMGL conditioned media using Apolipoprotein E Human ELISA kit (Invitrogen; #EHAPOE).

[7] = system: NGN2-induced neurons; assay: MEA recording of NGN2-induced neurons exposed to iMGL conditioned media; conditions: 24 hours after exposure to conditioned media from APOE4 iMGL pre-treated with TrC
Procedure: Having induced lipid formation in APOE3 iMGLs, we next attempted to deplete APOE4 iMGLs of lipid droplets to test whether this would alleviate APOE4 phenotypes. We turned to the ACSL1 inhibitor Triacsin C (TrC). […] Since TrC has also been reported to inhibit cholesterol biosynthesis and increase microglial phagocytosis, we decided to test if the extracellular accumulation of cholesterol in APOE4 iMGLs could be reduced by TrC treatment. After 16 hours, DMSO-treated controls or TrC-treated APOE4 iMGLs were washed off the drug treatment and allowed to condition the media for an additional 24 hours. […] NGN2-induced neurons from APOE3 or APOE4 iPS lines were seeded onto MEAs and allowed to mature for 3 weeks before being recorded 24 hours after exposure to conditioned media from APOE3 iMGLs, APOE4 iMGLs, or APOE4 iMGL treated with TrC. […]
Dissociated spheroids or NGN2-induced neurons were plated as a 10 μl droplet in Poly-D-Lysine (Sigma-Aldrich) coated wells of a CytoView MEA 48-well plate (Axion BioSystems; M768-tMEA-48B). […] Spontaneous neural activity was recorded for 30 minutes at a sampling rate of 12.5 kHz and an adaptive threshold set at 5.5 times the standard deviation of baseline noise was used for spike detection. Bursts were detected at each electrode using an inter-spike interval (ISI) threshold set to at least 5 spikes with a maximum ISI of 100 ms. […]

Row | Structure (SMILES) | cell size of iMGLs [1] | intracellular BODIPY-positive lipid droplets ([1]; IBA1-positive cells) | CD74 expression by qPCR [2] | expression of ACSL1 [2] | calcium transients evoked by ATP uncaging [3] | BODIPY-positive lipid droplets [4] | purinergic signaling [5] | levels of accumulated cholesterol in the media [6] | neuronal bursts / neural activity on MEA [7]
1 | CCCCCCCC/C=C\CCCCCCCC(=O)O [OA, oleic acid] | decrease in the cell size of iMGLs | accumulated intracellular BODIPY-positive lipid droplets | upregulation of this gene | significantly induced the expression of ACSL1 | sufficient to blunt calcium transients evoked by ATP uncaging relative to untreated APOE3 iMGLs |  |  |  | 
2 | CCC/C=C/C/C=C/C=C/C=N/NN=O [TrC, Triacsin C] |  |  |  |  |  | dramatically reduce BODIPY-positive lipid droplets relative to DMSO-treated control cells | purinergic signaling was restored after lipid droplet depletion | significant decrease in the levels of accumulated cholesterol in the media | increased neural activity to the level of neurons treated with APOE3 iMGL media
